Measured values from patent publication US20110201620A1, “2-(3-AMINOARYL) AMINO-4-ARYL-THIAZOLES AND THEIR USE AS C-KIT INHIBITORS” (AB SCIENCE, priority 2002, published 2011).

Legend:
[1] = test system: imatinib-resistant HMC-1 α155 cells; experiment: Apoptosis assay by propidium iodide staining; type: cell-based, human; conditions: 1 μM
Method: HMC-1 is a human mast cell line derived from a patient with mast cell leukaemia. The cell line used in this study, HMC-1 α155, is a clone derived from the original population expressing endogenous Kit bearing the mutation Val 560 to Gly. […] The medium used in this case was a RPMI medium containing L-glutamine (Cambrex cat# 12-702F) supplemented with 100 U/mL penicillin and 100 μg/mL streptomycin (Cambrex 100X penicilline/streptomycine mixture cat #17-602E), and with 10% v/v foetal calf serum (AbCys Lot S02823S1800) which has been previously heat-inactivated 30 minutes at 56° C. (RPMI 10). The medium containing the drugs was replaced with fresh one every 3-4 days. […] The principle behind the method for apoptosis assay by Propidium Iodide Staining (PI staining) is as follows: during apoptosis, DNA breakup causes small fragments of DNA to be free in the nucleus. Following appropriate elution with citrate buffer, these fragments are lost from the nucleus. As these cells now have a lower DNA content, subsequent staining with a DNA binding dye will reveal these cells in the sub-G1 region.
The % apoptosis represents the percentage of cells in apoptose with respect to overall cells.

[2] = Phase 2 clinical trial in advanced GIST, safety assessment; type: in vivo, human
Text: Methods; Patients: Patients enrolled in this study were aged over 18 years with inoperable, non-pretreated, histologically proven locally advanced or metastatic, c-Kit positive GIST. […] Exclusion criteria included: inadequate organ function defined via blood tests, severe liver or cardiac failure, and severe neurological or psychiatric disorders. Patients receiving a concomitant treatment within 4 weeks before inclusion, and pregnant or lactating women were also excluded. […] All adverse events (AEs), including abnormal serology or haematology, were recorded regardless of causality.

[3] = N = 30, Suspected: treatment related or not assessable

Cc1ccc(NC(=O)c2ccc(CN3CCN(C)CC3)cc2)cc1Nc1nc(-c2cccnc2)cs1 [Compound 066, 4-(4-methyl-piperazin-1-ylmethyl)-N-[4-methyl-3-(4-pyridin-3-yl-thiazol-2-ylamino)-phenyl]-benzamide]
% apoptosis (cells in apoptosis) [1]: More than 45%
patients reporting one grade 4 AE (skin exfoliation) ([2]; 1/30 patient): 3.3%
patients with treatment interruption for treatment-related haematological toxicity ([2]; 1/30 patient): 3%
patients with grade 3 treatment-related rash ([2]; 3/30 patients): 10%
patients experiencing serious adverse events (SAE) ([2]; 8/30 patients): 27%
patients with treatment interruption for non-haematological AEs ([2]; 13/30 patients): 43%
patients with at least one grade 3 treatment-related AE ([2]; 14/30 patients): 47%
patients with treatment interruption for more than 8 days ([2]; 16/30 patients): 53.3%
patients with treatment-related oedemas (all types) ([2]; 21/30 patients): 70%
patients reporting at least one treatment-related AE ([2]; ITT population): All patients
treatment-related toxicity per patient: abdominal pain ([2]; ITT population): 33%
treatment-related toxicity per patient: asthenia ([2]; ITT population): 83%
treatment-related toxicity per patient: cutaneous rash ([2]; ITT population): 40%
treatment-related toxicity per patient: diarrhoea ([2]; ITT population): 57%
treatment-related toxicity per patient: eye oedema ([2]; ITT population): 47%
treatment-related toxicity per patient: muscle spasms ([2]; ITT population): 40%
treatment-related toxicity per patient: nausea ([2]; ITT population): 47%
treatment-related toxicity per patient: peripheral oedema ([2]; ITT population): 20%
treatment-related toxicity per patient: pruritus ([2]; ITT population): 33%
treatment-related toxicity per patient: upper abdominal pain ([2]; ITT population): 23%
treatment-related toxicity per patient: vomiting ([2]; ITT population): 23%
Abdominal Pain Upper, All causalities, All grades ([2]; N = 30): 9 (30.0%) Number (%) of patients
Abdominal Pain, All causalities, All grades ([2]; N = 30): 16 (53.3%) Number (%) of patients
Abdominal Pain, All causalities, G3 + G4 ([2]; N = 30): 2 (6.7%) Number (%) of patients
Anaemia, All causalities, All grades ([2]; N = 30): 6 (20.0%) Number (%) of patients
Anaemia, All causalities, G3 + G4 ([2]; N = 30): 1 (3.3%) Number (%) of patients
Asthenia, All causalities, All grades ([2]; N = 30): 27 (90.0%) Number (%) of patients
Asthenia, All causalities, G3 + G4 ([2]; N = 30): 1 (3.3%) Number (%) of patients
Diarrhoea, All causalities, All grades ([2]; N = 30): 18 (60.0%) Number (%) of patients
Diarrhoea, All causalities, G3 + G4 ([2]; N = 30): 1 (3.3%) Number (%) of patients
Dry Skin, All causalities, All grades ([2]; N = 30): 4 (13.3%) Number (%) of patients
Erythema, All causalities, All grades ([2]; N = 30): 6 (20.0%) Number (%) of patients
Eye Oedema, All causalities, All grades ([2]; N = 30): 14 (46.7%) Number (%) of patients
Eye Oedema, All causalities, G3 + G4 ([2]; N = 30): 1 (3.3%) Number (%) of patients
Eyelid Oedema, All causalities, All grades ([2]; N = 30): 7 (23.3%) Number (%) of patients
Lacrimation Increased, All causalities, All grades ([2]; N = 30): 4 (13.3%) Number (%) of patients
Mucosal Inflammation, All causalities, All grades ([2]; N = 30): 5 (16.7%) Number (%) of patients
Mucosal Inflammation, All causalities, G3 + G4 ([2]; N = 30): 1 (3.3%) Number (%) of patients
Muscle Spasms, All causalities, All grades ([2]; N = 30): 12 (40.0%) Number (%) of patients
Myalgia, All causalities, All grades ([2]; N = 30): 4 (13.3%) Number (%) of patients
Nausea, All causalities, All grades ([2]; N = 30): 15 (50.0%) Number (%) of patients
Neutropenia, All causalities, All grades ([2]; N = 30): 5 (16.7%) Number (%) of patients
Neutropenia, All causalities, G3 + G4 ([2]; N = 30): 2 (6.7%) Number (%) of patients
Oedema Peripheral, All causalities, All grades ([2]; N = 30): 8 (26.7%) Number (%) of patients
Pruritus, All causalities, All grades ([2]; N = 30): 11 (36.7%) Number (%) of patients
Pruritus, All causalities, G3 + G4 ([2]; N = 30): 1 (3.3%) Number (%) of patients
Rash, All causalities, All grades ([2]; N = 30): 12 (40.0%) Number (%) of patients
Rash, All causalities, G3 + G4 ([2]; N = 30): 3 (10.0%) Number (%) of patients
Vomiting, All causalities, All grades ([2]; N = 30): 10 (33.3%) Number (%) of patients
Abdominal Pain Upper, Suspected, All grades [2, 3]: 7 (23.3%) Number (%) of patients
Abdominal Pain, Suspected, All grades [2, 3]: 10 (33.3%) Number (%) of patients
Abdominal Pain, Suspected, G3 + G4 [2, 3]: 1 (3.3%) Number (%) of patients
Anaemia, Suspected, All grades [2, 3]: 4 (13.3%) Number (%) of patients
Anaemia, Suspected, G3 + G4 [2, 3]: 1 (3.3%) Number (%) of patients
Asthenia, Suspected, All grades [2, 3]: 25 (83.3%) Number (%) of patients
Asthenia, Suspected, G3 + G4 [2, 3]: 1 (3.3%) Number (%) of patients
Diarrhoea, Suspected, All grades [2, 3]: 17 (56.7%) Number (%) of patients
Diarrhoea, Suspected, G3 + G4 [2, 3]: 1 (3.3%) Number (%) of patients
Dry Skin, Suspected, All grades [2, 3]: 4 (13.3%) Number (%) of patients
Erythema, Suspected, All grades [2, 3]: 5 (16.7%) Number (%) of patients
Eye Oedema, Suspected, All grades [2, 3]: 14 (46.7%) Number (%) of patients
Eye Oedema, Suspected, G3 + G4 [2, 3]: 1 (3.3%) Number (%) of patients
Eyelid Oedema, Suspected, All grades [2, 3]: 7 (23.3%) Number (%) of patients
Lacrimation Increased, Suspected, All grades [2, 3]: 4 (13.3%) Number (%) of patients
Mucosal Inflammation, Suspected, All grades [2, 3]: 5 (16.7%) Number (%) of patients
Mucosal Inflammation, Suspected, G3 + G4 [2, 3]: 1 (3.3%) Number (%) of patients
Muscle Spasms, Suspected, All grades [2, 3]: 12 (40.0%) Number (%) of patients
Myalgia, Suspected, All grades [2, 3]: 4 (13.3%) Number (%) of patients
Nausea, Suspected, All grades [2, 3]: 14 (46.7%) Number (%) of patients
Neutropenia, Suspected, All grades [2, 3]: 5 (16.7%) Number (%) of patients
Neutropenia, Suspected, G3 + G4 [2, 3]: 2 (6.7%) Number (%) of patients
Oedema Peripheral, Suspected, All grades [2, 3]: 6 (20.0%) Number (%) of patients
Pruritus, Suspected, All grades [2, 3]: 10 (33.3%) Number (%) of patients
Pruritus, Suspected, G3 + G4 [2, 3]: 1 (3.3%) Number (%) of patients
Rash, Suspected, All grades [2, 3]: 12 (40.0%) Number (%) of patients
Rash, Suspected, G3 + G4 [2, 3]: 3 (10.0%) Number (%) of patients
Vomiting, Suspected, All grades [2, 3]: 7 (23.3%) Number (%) of patients
cardiac side-effects ([2]; human, in vivo): no cardiac side-effects have been observed
total number of serious adverse events (SAE) ([2]; in 8/30 patients): 14
patients with dose reduced by 100 or 200 mg/day following grade 3-4 AEs ([2]; six patients): 20%
number of treatment-related SAE ([2]; worsening of a concomitant psoriasis and anaemia): three
